Measured values: patent US5019384A, “Immunonodulating compositions and their use” (Massachusetts Institute of Technology, priority 1989, dated 1991)
“Also recorded” adds a separate entry of the source. Where two headings read alike, the source gives them in different places.

Assays:
T-cell hybridoma 7B7.3 = assay: Activation of T-cell hybridoma 7B7.3 measured by IL-2 secretion; format: cell-based, Balb/c mouse; settings: for Stimulation of 7B7.3: in the context of I-A^d; for Inhibition of P15-26-dependent 7B7.3 activation: P15-26 as activator, I-A^d context, IL-2 release
Experimental: (§1) T-cell hybridomas were obtained as described in Guillet et al., Science (1985) 235:865-870: and Lechler et al., J. Exp. Med. (1986) 163:678-696 (particularly references cited therein). The procedure for determining inhibition or activation is described in Guillet et al., supra.
(§2) The activation of T-cell hybridomas was measured by their ability to secrete IL-2 (T-cell hybridomas (5×10^4) that were incubated with 5×10^4 antigen-presenting cells in wells of a 96-well tissue Costar plate (no. 3596) in 200 μl RPMI complete medium containing the appropriate antigen concentrations). After 24 hrs of culture, supernatant (50 μl) was removed and then assayed for IL-2 content by its ability to maintain the growth of the IL-2 Dependent CTL-L cells: 1 μCi of ^3 H tritiated thymidine was added per well. Six hours later the cells were harvested by an automatic cell harvester (Skartron Inc., Sterling, Va.) and thymidine incorporation measured by scintillation counting.
The activity of T-cell hybridoma 7B7.3 was measured in the presence of various concentrations of P15-26, either in RPMI 1640 with 10 percent fetal calf serum alone or in the presence of P12-24 20 μM or P12-24 60 μM. A20 B-cell lymphomas (5×10^4 cells/well) were used as antigen presenting cells. After 24 hrs of culture, supernatant (50 μl) was harvested and then assayed for IL-2 concentration by following incorporation of ^3 H thymidine into the IL-2 dependent CTL-L cell line (10^4 cells/well). The indicated values in FIG. 2 represent the arithmetic mean of triplicate samples.
The following work was carried out to examine the competitive ability of peptides derived from Staphylococcus nuclease (Nase), residues 61-80 (P61-80) and from ovalbumin (Ova), residues 324-336 (P324-336) to inhibit P15-26-dependent activation of the hybridoma 7B7.3. Each of these peptides has been shown in their respective cases to be I-A^d -restricted and to be immunodominant for their respective antigens. Finnegan, A. et al. Journal of Experimental Medicine (1986) 164:897-910: Shimonkevitz, R. et al., Journal of Immunology (1984). 5×10^4 TA3 cells were added to each well. Various concentrations of P15-26 were added with either medium (RPMI 1640 with 10 percent fetal calf serum) alone or 30 μM or Ova (P324-36) of 60 μM of Nase ([…]). A20 B-cell lymphoma (5×10^4 cells/well) was used as antigen presenting cells. 7B7.3 T-cell hybridomas (5×10^4) were then added and cultured for 24 hrs. The level of T-cell stimulation was assayed by determining the IL-2 concentration as indicated in Example II. […] The degree of inhibition is […] upon the ratio of activator to inhibitor in each case.

T-cell hybridoma 8I = assay: Activation of T-cell hybridoma 8I measured by IL-2 secretion; format: cell-based, A/J strain; settings: for Stimulation of 8I: in the context of I-E^k
Experimental: as §1, §2
8I (I-E^k -restricted) T-cell hybridomas and TA3 B presenting cells (5×10^4) were cocultured with various concentration of P15-26 and either medium alone or 60 μM of Ova (P324-336) or 60 μM Nase (P61-80) as described above. […] In addition, no other peptides representative of the remainder of the Nase sequence were able to inhibit 7B7.3 activation.

[1] = tested on: T-cell hybridoma DO-11.10; format: cell-based
I-A^k = molecular target: T1, I-A^k (Mus musculus, UniProt P01910+P06343); assay: Gel filtration binding of 125I-labeled peptide to purified Ia (I-A^k); settings: I-A^k; 125I-labeled peptide, 48 hours at room temperature, no inhibitor
T1 construct: endogenous in cells
T1 sequence (P01910 24-256): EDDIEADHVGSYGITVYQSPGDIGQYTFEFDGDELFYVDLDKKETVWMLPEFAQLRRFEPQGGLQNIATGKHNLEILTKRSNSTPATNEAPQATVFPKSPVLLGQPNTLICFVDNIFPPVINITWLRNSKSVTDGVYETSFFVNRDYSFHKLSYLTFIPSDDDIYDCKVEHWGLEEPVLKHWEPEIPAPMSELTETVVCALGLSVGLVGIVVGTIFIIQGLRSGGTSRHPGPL
T1 sequence (P06343 28-263): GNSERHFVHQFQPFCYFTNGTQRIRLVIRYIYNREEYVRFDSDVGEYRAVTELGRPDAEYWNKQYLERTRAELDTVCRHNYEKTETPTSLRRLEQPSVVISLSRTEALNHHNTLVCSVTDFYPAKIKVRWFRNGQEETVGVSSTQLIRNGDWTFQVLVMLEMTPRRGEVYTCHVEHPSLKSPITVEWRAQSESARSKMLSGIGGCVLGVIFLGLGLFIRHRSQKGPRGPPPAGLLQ
From the text: (§3) The peptide P12-26 was modified by the addition of a tyrosine residue to the N-terminus to serve as an acceptor for the ^125 I.
(§4) Ia-molecules were purifed from Nonidet P-40 (NP-40) lysates of A20 (H2^d) or AKTB-1b (H2^k) cells by affinity chromatography using the following monoclonal antibodies: MK-D6 (I-A^d -specific), 10-3-6 (I-A^k -specific) specific) or 14-4-4 (I-E^d/k -specific) coupled to Sepharose 4B beads (Pharmacia Fine Chemicals, Sweden).
(§5) A gel filtration assay was used for determining the degree of association between immunogenic peptides and Ia. The assay is described in: Buus, S. et al., Proceeding of the National Academy of Sciences, U.S.A. (1986) 83:3968, the teaching of which is incorporated herein by reference. Briefly, 40 μmole of purified Ia in 1 percent NP-40/PBS was mixed with 0.2 μmole of ^125 I-labeled peptide (approximately 200,000 cpm for each experiment) and incubated for 48 hours at room temperature to allow for formation of the Ia-peptide complex. The Ia-peptide complexes were separated from free peptide by gel filtration and the percentage of peptide bound to Ia was calculated as the ratio of the ^125 I-labeled peptide in the void volume to the total ^125 I-labeled peptide recovered.

I-A^d = molecular target: T2, I-A^d (Mus musculus, UniProt P01921+P04228); assay: Gel filtration binding of 125I-labeled peptide to purified Ia (I-A^d); settings: I-A^d; 125I-labeled peptide, 48 hours at room temperature, no inhibitor
T2 construct: endogenous in cells
T2 sequence (P04228 24-256): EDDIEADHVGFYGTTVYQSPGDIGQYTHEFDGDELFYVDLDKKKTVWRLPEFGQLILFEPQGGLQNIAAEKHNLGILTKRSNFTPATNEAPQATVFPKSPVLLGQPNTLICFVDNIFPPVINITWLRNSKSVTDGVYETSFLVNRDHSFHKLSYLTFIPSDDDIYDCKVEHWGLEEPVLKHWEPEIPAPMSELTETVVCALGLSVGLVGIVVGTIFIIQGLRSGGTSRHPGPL
T2 sequence (P01921 28-265): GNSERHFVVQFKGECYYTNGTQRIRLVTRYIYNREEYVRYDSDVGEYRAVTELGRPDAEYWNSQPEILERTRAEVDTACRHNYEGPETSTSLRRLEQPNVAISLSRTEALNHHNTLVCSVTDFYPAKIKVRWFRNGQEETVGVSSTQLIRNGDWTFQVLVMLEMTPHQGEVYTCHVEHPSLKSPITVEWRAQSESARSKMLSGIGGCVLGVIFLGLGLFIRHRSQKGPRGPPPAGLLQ
From the text: as §3, §4, §5

Row | Substance | Stimulation of 7B7.3 (T-cell hybridoma 7B7.3) | Stimulation of 8I (T-cell hybridoma 8I) | Inhibition of P15-26-dependent 7B7.3 activation (T-cell hybridoma 7B7.3) | Stimulation of DO-11.10 [1] | also measured
1 | P15-26: peptide which contains amino acid residues 15-26 of cI | is stimulated; also recorded: can be stimulated | recognizes the same peptide | – | – | EC50 (T-cell hybridoma 7B7.3; 7B7.3 co-cultured with P15-26 and P12-24 at 20 μM, read-out: 50 percent stimulation point of the P15-26 antigen dose response curve): 29.8 ± 2.8 µM; EC50 (T-cell hybridoma 7B7.3; 7B7.3 co-cultured with P15-26 and P12-24 at 60 μM, read-out: 50 percent stimulation point of the P15-26 antigen dose response curve): 70.3 µM; EC50 (T-cell hybridoma 7B7.3; P15-26 cultured with 7B7.3 alone, A20 antigen presenting cells, 24 hrs, IL-2, read-out: 50% stimulation point of the P15-26 antigen dose response curve): 20.7 ± 1.2 µM
2 | Ova (P324-336): peptide from ovalbumin (Ova), residues 324-336, truncated analog of P323-339 (ISQAVHAAHAEIN; UniProt P01012 324-336, looked up, fragment) [reference compound] | – | – | inhibit 7B7.3 activation in a dose-dependent manner | responds less well | Effect on 8I activation (T-cell hybridoma 8I; TA3 presenting cells, P15-26 stimulator, competitor peptide 60 μM): without effect
3 | Lysozyme (Hen) (P46-61): lysozyme-derived peptide restricted by I-A^k [reference compound] | – | – | – | – | Percent of Peptide Bound (I-A^k): 21.5%
4 | P323-339: peptide P323-339 derived from ovalbumin (KISQAVHAAHAEINEAG; UniProt P01012 323-339, looked up, fragment) [reference compound] | – | – | – | responds to | Percent of Peptide Bound (I-A^d): 10.6%
5 | P12-24: homologous peptide which contains residues 12-24 of cI | Neither 7B7.3 nor 8I can be stimulated; also recorded: Neither T-cell can be stimulated | Neither 7B7.3 nor 8I can be stimulated; also recorded: Neither T-cell can be stimulated | inhibited activation by P15-26 in a dose-dependent manner; also recorded: inhibition of P15-26-dependent7B7.3 activation was observed; also recorded: inhibit activation by P15-26 in a dose dependent manner | – | Effect on 8I activation (IL-2 response) (T-cell hybridoma 8I; I-E^k-restricted hybridoma, P12-24 as competitor): no statistically significant effect; also recorded: had no effect
